The results in this text go back to patent US12606541B2, “PPARg modulators and methods of use” (Eisai R&D Management Co., Ltd., priority 2020, dated 2026).

Assay [1] addresses T1, His6-TEV-PPARγ-(234-505) (Homo sapiens, UniProt P37231).
T1 construct: The His6-TEV-PPARγ-(234-505) protein for assay was expressed and purified; TEV cleavage site (N); made in house
T1 sequence (P37231 234-505): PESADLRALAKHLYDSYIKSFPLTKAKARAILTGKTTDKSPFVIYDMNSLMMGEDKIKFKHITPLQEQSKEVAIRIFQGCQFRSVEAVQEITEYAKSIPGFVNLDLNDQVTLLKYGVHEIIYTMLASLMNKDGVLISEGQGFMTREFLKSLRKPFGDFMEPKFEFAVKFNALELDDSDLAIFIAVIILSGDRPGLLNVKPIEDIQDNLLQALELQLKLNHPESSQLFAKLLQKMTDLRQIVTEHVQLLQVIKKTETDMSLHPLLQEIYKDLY
Nature of the assay: TR-FRET Assay to Measure Co-R Peptide Recruitment to PPARγ. It is filed as biochemical. The conditions noted are these: Co-R peptide (SMRT-ID2) recruitment; top final concentration 20 μM; read-out: TR-FRET i-Ag; AC50. The gist of the method:
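His-tagged PPARγ (or controls) was preincubated with compound for 20 minutes at room temperature, then 5 nM anti-His terbium antibody and 200 nM FITC-labeled SMRT-ID2 corepressor peptide (final) were added for a further hour. TR-FRET signal was normalized to percent response using 500 nM T0070907 and DMSO controls.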
For orientation: Time-resolved FRET reads energy transfer from a long-lived donor to a nearby acceptor.

Assay [2] has as its system UM-UC-9 engineered cells. Nature of the assay: Cell proliferation / short-term viability assay, CellTiter-Glo 144 h. It is filed as cell-based, human. Particulars: read-out: CTGlo 144 h UMUC9.5, G150. The gist of the method: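 UM-UC-9 engineered assay-ready cells seeded at 500 cells/well in high-glucose DMEM/10% FBS, treated from dose-response plates, grown at 37° C, 5% CO2. CellTiter-Glo 2.0 luminescence read on day 7, with a day-0 pretreatment plate as T0 reference and DMSO wells as negative control.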

Like-named read-outs stand apart in the source and are kept apart here.

Regarding `COc1cc(-c2cc(C(=O)N3CCC(C(=O)NC4CCOc5ncccc54)CC3)n[nH]2)c(Cl)cn1` (racemic) [Example 236, 1-(5-(5-chloro-2-methoxypyridin-4-yl)-1H-pyrazole-3-carbonyl)-N (3,4-dihydro-2H-pyrano[2,3-b]pyridin-4-yl)piperidine-4-carboxamide], the AC50 in assay [1] was 466 nM. Moreover, the IC50 in assay [2] (Homo sapiens, UM-UC-9, 144 h) was determined as 5360 nM.
On the same counts, the results for `COc1cc(-c2cc(C(=O)N3CC[C@H](C(=O)NCc4[nH]cnc4C(F)(F)F)CC34CC4)[nH]n2)c(F)cn1` [Example 503, (S)-4-(3-(5-fluoro-2-methoxypyridin-4-yl)-1H-pyrazole-5-carbonyl)-N-((4-(trifluoromethyl)-1H-imidazol-5-yl)methyl)-4-azaspiro[2.5]octane-7-carboxamide] are 8.1 nM and 146 nM.
For `COc1cc(-c2cc(C(=O)N3CC[C@H](C(=O)NCc4ncc(N5CC6CC5CN6)cc4Cl)CC34CC4)n[nH]2)c(F)cn1` (single isomer, unassigned) [Example 462-B], the AC50 in assay [1] came out at 14.4 nM. The IC50 in assay [2] is 573 nM.
`COc1cc(-c2cc(C(=O)N3CCC(C(=O)NC4C(=O)NCc5ccccc54)CC3)n[nH]2)c(Cl)cn1` (racemic) [Example 244, 1-(5-(5-chloro-2-methoxypyridin-4-yl)-1H-pyrazole-3-carbonyl)-N-(3-oxo-1,2,3,4-tetrahydroisoquinolin-4-yl)piperidine-4-carboxamide]: the AC50 in assay [1] worked out at 605 nM. In assay [2] (Homo sapiens, UM-UC-9, 144 h), the IC50 was determined as 5560 nM.
The matching figures for `COc1cc(-c2cc(C(=O)N3CC[C@H](C(=O)N[C@H]4CC[C@@](OCCN(C)C)(C(F)(F)F)CC4)CC34CC4)n[nH]2)c(F)cn1` [Example 329-A, (S)—N-((1r,4S)-4-(2-(dimethylamino)ethoxy)-4-(trifluoromethyl)cyclohexyl)-4-(5-(5-fluoro-2-methoxypyridin-4-yl)-1H-pyrazole-3-carbonyl)-4-azaspiro[2.5]octane-7-carboxamide]: 7.5 nM and 24.3 nM.
In the case of “(1R,3s,5S)—N-(3-chlorobenzyl)-8-(5-(5-fluoro-2-methoxypyridin-4-yl)-1H-pyrazole-3-carbonyl)-8-azabicyclo[3.2.1]octane-3-carboxamide and (1R,3r,5S)—N-(3-chlorobenzyl)-8-(5-(5-fluoro-2-methoxypyridin-4-yl)-1H-pyrazole-3-carbonyl)-8-azabicyclo[3.2.1]octane-3-carboxamide [Example 160]”, the AC50 in assay [1] turned out to be 11.6 nM. The IC50 in assay [2] was 20.6 nM.
On the same counts, the results for `COc1cc(-c2cc(C(=O)N3CCC(C(=O)NCC4CCn5c(C)nnc5C4)CC34CC4)n[nH]2)c(F)cn1` (single isomer, unassigned) [Example 346-B] are 1120 nM and 2410 nM.
On to `COc1cc(-c2cc(C(=O)N3CCC(C(=O)NC4CCC5(CCO5)CC4)CC3)n[nH]2)c(F)cn1` (stereo not shown) [Example 276, 1-(5-(5-fluoro-2-methoxypyridin-4-yl)-1H-pyrazole-3-carbonyl)-N-(1-oxaspiro[3.5]nonan-7-yl)piperidine-4-carboxamide], for which the AC50 in assay [1] turned out to be 813 nM. Besides, the IC50 in assay [2] (Homo sapiens, UM-UC-9, 144 h) was over 4000 nM.
Regarding `COc1cc(-c2cc(C(=O)N3CCC(C(=O)Nc4cnn5ccc(C6CC6C#N)nc45)CC34CC4)n[nH]2)c(F)cn1` (mixture of isomers) [Example 466, (S)—N-(5-((1S,2S)-2-cyanocyclopropyl)pyrazolo[1,5-a]pyrimidin-3-yl)-4-(5-(5-fluoro-2-methoxypyridin-4-yl)-1H-pyrazole-3-carbonyl)-4-azaspiro[2.5]octane-7-carboxamide and (S)—N-(5-((1R,2R)-2-cyanocyclopropyl)pyrazolo[1,5-a]pyrimidin-3-yl)-4-(5-(5-fluoro-2-methoxypyridin-4-yl)-1H-pyrazole-3-carbonyl)-4-azaspiro[2.5]octane-7-carboxamide], in assay [1], the AC50 came out at 5.1 nM. In addition, the IC50 in assay [2] came to 51.2 nM.
For `CO[C@]1(C(F)(F)F)CC[C@H](NC(=O)[C@@H]2CCN(C(=O)c3cc(-c4cc(C)ncc4F)[nH]n3)C3(CC3)C2)CC1` (single isomer, unassigned) [Example 293-B], the AC50 in assay [1] was determined as 1640 nM. For the same compound, in assay [2] (Homo sapiens, UM-UC-9, 144 h), the IC50 came out at 3240 nM.
`COc1cc(-c2cc(C(=O)N3[C@@H]4CC[C@H]3C[C@H](C(=O)NC3CCC5(CC3)OCC5(F)F)C4)n[nH]2)c(F)cn1` (mixture of isomers) [Example 307, (1R,3s,5S)—N-(3,3-difluoro-1-oxaspiro[3.5]nonan-7-yl)-8-(5-(5-fluoro-2-methoxypyridin-4-yl)-1H-pyrazole-3-carbonyl)-8-azabicyclo[3.2.1]octane-3-carboxamide]: in assay [1], the AC50 is 22.1 nM. Also, in assay [2] (Homo sapiens, UM-UC-9, 144 h), the IC50 turned out to be 173 nM.
Turning to `COc1cnc(CNC(=O)C2CCN(C(=O)c3cc(-c4cc(C)ncc4F)[nH]n3)C3(CC3)C2)c(Cl)c1` (racemic) [Example 484, (S)—N-((3-chloro-5-methoxypyridin-2-yl)methyl)-4-(5-(5-fluoro-2-methylpyridin-4-yl)-1H-pyrazole-3-carbonyl)-4-azaspiro[2.5]octane-7-carboxamide and (R)—N-((3-chloro-5-methoxypyridin-2-yl)methyl)-4-(5-(5-fluoro-2-methylpyridin-4-yl)-1H-pyrazole-3-carbonyl)-4-azaspiro[2.5]octane-7-carboxamide], the AC50 in assay [1] was found to be 3.8 nM. The IC50 in assay [2] turned out to be 20.5 nM.
`COc1cc(-c2cc(C(=O)N3CCC(C(=O)NC(C)c4ccc5[nH]nc(C)c5c4)CC3)n[nH]2)c(F)cn1` (racemic) [Example 281, 1-(5-(5-fluoro-2-methoxypyridin-4-yl)-1H-pyrazole-3-carbonyl)-N-(1-(3-methyl-1H-indazol-5-yl)ethyl)piperidine-4-carboxamide]: the AC50 in assay [1] came out at 101 nM. Moreover, the IC50 in assay [2] (Homo sapiens, UM-UC-9, 144 h) is 632 nM.
Consider `CC(=O)c1cc(-c2cc(C(=O)N3CCC(C(=O)NCc4ncc(F)cc4Cl)CC34CC4)n[nH]2)c(F)cn1` (stereo not shown) [Example 477, 4-(5-(2-acetyl-5-fluoropyridin-4-yl)-1H-pyrazole-3-carbonyl)-N-((3-chloro-5-fluoropyridin-2-yl)methyl)-4-azaspiro[2.5]octane-7-carboxamide], for which the AC50 in assay [1] worked out at 42.8 nM. Also, in assay [2] (Homo sapiens, UM-UC-9, 144 h), the IC50 was 307 nM.
`COc1cc(-c2cc(C(=O)N3CC[C@H](C(=O)NCc4nc(C)c(C)n4C)CC34CC4)n[nH]2)c(F)cn1` [Example 465, (S)-4-(5-(5-fluoro-2-methoxypyridin-4-yl)-1H-pyrazole-3-carbonyl)-N-((1,4,5-trimethyl-1H-imidazol-2-yl)methyl)-4-azaspiro[2.5]octane-7-carboxamide]: in assay [1], the AC50 was 88.6 nM. Besides, the IC50 in assay [2] (Homo sapiens, UM-UC-9, 144 h) was 842 nM.
For the compound “(S)-4-(5-(5-fluoro-2-methoxypyridin-4-yl)-1H-pyrazole-3-carbonyl)-N-((1r,4S)-4-hydroxy-4-(perfluoroethyl)cyclohexyl)-4-azaspiro[2.5]octane-7-carboxamide and (S)-4-(5-(5-fluoro-2-methoxypyridin-4-yl)-1H-pyrazole-3-carbonyl)-N-((1s,4R)-4-hydroxy-4-(perfluoroethyl)cyclohexyl)-4-azaspiro[2.5]octane-7-carboxamide [Example 373]”, in assay [1], the AC50 was found to be 11.7 nM. Also, in assay [2], the IC50 is 3 nM.
In the case of `Cc1cc(-c2cc(C(=O)N3[C@@H]4CC[C@H]3C[C@H](C(=O)NCc3ccc5[nH]nc(F)c5c3)C4)n[nH]2)c(F)cn1` [Example 284, (1R,3s,5S)—N-((3-fluoro-1H-indazol-5-yl)methyl)-8-(5-(5-fluoro-2-methylpyridin-4-yl)-1H-pyrazole-3-carbonyl)-8-azabicyclo[3.2.1]octane-3-carboxamide], the AC50 in assay [1] came out at 2.3 nM. For the same compound, the IC50 in assay [2] (Homo sapiens, UM-UC-9, 144 h) amounted to 12.1 nM.
Turning to `COc1cc(-c2cc(C(=O)N3CCC(C(=O)NCC45CCC(O)(CC4)C5)CC34CC4)n[nH]2)c(F)cn1` (single isomer, unassigned) [Example 333-B], in assay [1], the AC50 stood at 6.7 nM. Further, in assay [2], the IC50 was 33.2 nM.
`COc1cnc(CNC(=O)[C@H]2CCN(C(=O)c3cc(-c4cc(OC)ncc4F)[nH]n3)C3(CC3)C2)nc1` [Example 455, (S)-4-(5-(5-fluoro-2-methoxypyridin-4-yl)-1H-pyrazole-3-carbonyl)-N-((5-methoxypyrimidin-2-yl)methyl)-4-azaspiro[2.5]octane-7-carboxamide]: in assay [1], the AC50 turned out to be 67.9 nM. The IC50 in assay [2] (Homo sapiens, UM-UC-9, 144 h) is 213 nM.
In the case of `COc1cc(-c2cc(C(=O)N3CCC(C(=O)NCC4CCc5n[nH]cc5C4)CC34CC4)[nH]n2)c(F)cn1` (mixture of isomers) [Example 341, (S)-4-(3-(5-fluoro-2-methoxypyridin-4-yl)-1H-pyrazole-5-carbonyl)-N—(((R)-4,5,6,7-tetrahydro-2H-indazol-5-yl)methyl)-4-azaspiro[2.5]octane-7-carboxamide and (S)-4-(3-(5-fluoro-2-methoxypyridin-4-yl)-1H-pyrazole-5-carbonyl)-N—(((S)-4,5,6,7-tetrahydro-2H-indazol-5-yl)methyl)-4-azaspiro[2.5]octane-7-carboxamide], the AC50 in assay [1] came out at 5 nM. For the same compound, the IC50 in assay [2] came out at 10.3 nM.
